From US20080175837A1, “DPP4 INHIBITOR AND PHARMACEUTICAL USE THEREOF” (AJINOMOTO CO., INC, priority 2005, published 2008)
Residues, ends and D or L forms follow the SMILES beside them.

How the values were obtained:
rat hepatic cells = experiment: Measurement of autophagy (proteolysis, valine release) by using rat hepatic cells; type: cell-based
Description: Male Wistar rats of 140 to 180 g which were freely fed were used to prepare rat hepatic cells by the collagenase perfusion method (Seglen, P.O. Preparation of isolated liver cells. (1976) In Methods in Cell Biology eds. D. M. Prescott, 13, 29-83. Academic: New York/London). By this method, 2 to 2.5×10^8 cells of the hepatic cells per one individual's […] could be prepared.
The protein decomposition (autophagy) of the prepared hepatic cells was determined by the method of Venerando, et al. Namely, the hepatic cells were put in a 10 mL flask with 3.5 mL of KRB buffer (24 mM bicarbonate, 6 mM glucose) to prepare a cell suspension (1 to 1.2×10^6 cells/mL). The solution was kept and left in 37° C. for 45 minutes in a carbon dioxide incubator. Then, various chemical treatments were conducted under the existence of 20 uM cycloheximide in order to stop the protein synthesis, and the solution was kept at 37° C. for […]. At each 31 minutes and 42 minutes, 0.35 mL of the hepatic cell suspension was taken out, and a perchloric acid cooled with ice (final concentration 6%) was added to the latter and preserved at −20° C. Valine in the supernatant of the acid-soluble fraction was measured, and valine release for 11 minutes was determined. […]

[1] = target: T1, recombinant human dipeptidyl peptidase IV (rhDpp4) (Homo sapiens, UniProt P27487); experiment: Inhibiting activity against rhDpp4 (G-P-pNA cleavage, absorbance at 405 nm); type: biochemical
T1 construct: purchased R&D Systems 1180-SE
Description: The inhibiting activity of each test compound was determined against the cleaving activity of GLY-PRO-p-nitroanihde (G-P-pNA, by Sigma, #G-0513), which is a synthetic substrate of recombinant human dipeptidyl peptidase IV (rhDpp4, by R&D Systems, #1180-SE). G-P-pNA was cleaved between PRO and pNA by rhDpp4. Since pNA is absorbed at 405 nm, the value thereof was measured to determine the cleavage amount.
The reaction solution (25 mM Tris (pH8.0), 100 uM G-P-pNA, 0.25 ng/ul rhDPP4) was prepared and added to the test compound so that the final concentration of the test compound became 2 mM (1% DMSO concentration). The reaction solution was kept in 37° C. for 30 minutes. After that, the absorbance at 405 nm was measured at once by a spectrophotometer. The reaction was conducted in 200 ul scale with a 96-well microplate.
At the same time, the absorbance at 405 nm of each 100, 33, 11, 3.7, 1.2, 0.41, and 0.14 uM pNA solution was measured to obtain the relational formula of pNA concentration and absorbance, and the pNA amount (the substrate cleavage amount) in each reaction solution was calculated.
As for the inhibition rate, 3 to 4 wells without the test compound were prepared in the same plate. Then, the inhibition rate was calculated and shown in percentage by using the following formula from the proportion of the substrate cleavage amount (B) of the well to which each test compound was added to the average amount (A) of the substrate cleavage amount of the well without the test compound.
Inhibition rate (%)=100×(1−(B)/(A))

[2] = target: T2, p103 (rat dipeptidyl peptidase IV, DPP4) (Rattus norvegicus, UniProt P14740); experiment: Bond of Leu8-MAP to leucine binding protein p103 on the hepatocyte membrane, competition by free amino acids; details: excess free amino acid
T2 construct: from tissue; host or cells: rat hepatocyte membrane
Source text: In order to solve the above problems, the inventors attempted to identify leucine binding protein that exists on the membrane of rat hepatic cells by using a membrane-impermeable leucine derivative (Leu8-MAP). As a result of the thorough search, they found a molecular weight of 103-kilodalton leucine-specific binding protein (p103) on the hepatocyte membrane. Though the bond of Leu8-MAP to p103 was inhibited by excess free leucine, it was not inhibited by isoleucine or valine. Therefore, p103 was protein that selectively bonds to leucine. Further, as a result of various examinations on the condition for purifying p103 from the hepatocyte membrane, they succeeded in isolating the above protein by purification and detected it as a single band protein by SDS-PAGE electrophoresis. This band was cleaved from the gel, and peptide fragmentation was conducted thereto by the in-gel reduction/alkylation and the enzyme digestion. Then, the mass spectrometry was conducted by providing the fragment with the equipment wherein a nanoHPLC system (Ultimate: Nippon Dionex K.K.) was connected to an ion trap mass spectrometer (LCQ: Thermo Electron Co., Ltd.). The obtained data was identified with a database search system (Mascot: Matrix Science, Ltd.). MSDB (Jan. 6, 2004 ver. by Matrix Science, Ltd.) was used as the sequence database for search. As a result, rat dipeptidyl peptidase IV (DPP4: EC 3.4.14.5) could be identified at a high score.

T2 sequence (P14740 whole entry): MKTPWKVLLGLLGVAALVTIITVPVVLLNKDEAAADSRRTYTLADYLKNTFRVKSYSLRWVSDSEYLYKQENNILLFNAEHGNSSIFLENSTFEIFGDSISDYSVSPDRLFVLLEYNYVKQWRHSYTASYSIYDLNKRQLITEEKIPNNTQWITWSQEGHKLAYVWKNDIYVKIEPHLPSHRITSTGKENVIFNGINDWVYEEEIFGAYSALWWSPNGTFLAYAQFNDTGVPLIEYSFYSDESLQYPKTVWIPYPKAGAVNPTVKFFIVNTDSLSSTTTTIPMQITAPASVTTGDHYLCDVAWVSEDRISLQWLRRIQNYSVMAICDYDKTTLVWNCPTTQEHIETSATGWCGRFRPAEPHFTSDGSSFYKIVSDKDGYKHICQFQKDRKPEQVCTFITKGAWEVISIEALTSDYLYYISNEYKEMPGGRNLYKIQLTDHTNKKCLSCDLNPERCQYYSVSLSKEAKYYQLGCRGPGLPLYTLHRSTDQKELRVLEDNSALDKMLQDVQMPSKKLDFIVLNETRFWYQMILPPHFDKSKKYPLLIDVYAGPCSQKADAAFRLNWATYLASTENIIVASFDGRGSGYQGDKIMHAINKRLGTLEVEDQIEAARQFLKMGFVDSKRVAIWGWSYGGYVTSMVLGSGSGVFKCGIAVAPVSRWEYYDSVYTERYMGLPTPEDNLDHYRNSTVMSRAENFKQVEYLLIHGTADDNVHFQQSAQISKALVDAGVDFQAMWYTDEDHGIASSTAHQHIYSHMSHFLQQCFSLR
T1 sequence (P27487 whole entry): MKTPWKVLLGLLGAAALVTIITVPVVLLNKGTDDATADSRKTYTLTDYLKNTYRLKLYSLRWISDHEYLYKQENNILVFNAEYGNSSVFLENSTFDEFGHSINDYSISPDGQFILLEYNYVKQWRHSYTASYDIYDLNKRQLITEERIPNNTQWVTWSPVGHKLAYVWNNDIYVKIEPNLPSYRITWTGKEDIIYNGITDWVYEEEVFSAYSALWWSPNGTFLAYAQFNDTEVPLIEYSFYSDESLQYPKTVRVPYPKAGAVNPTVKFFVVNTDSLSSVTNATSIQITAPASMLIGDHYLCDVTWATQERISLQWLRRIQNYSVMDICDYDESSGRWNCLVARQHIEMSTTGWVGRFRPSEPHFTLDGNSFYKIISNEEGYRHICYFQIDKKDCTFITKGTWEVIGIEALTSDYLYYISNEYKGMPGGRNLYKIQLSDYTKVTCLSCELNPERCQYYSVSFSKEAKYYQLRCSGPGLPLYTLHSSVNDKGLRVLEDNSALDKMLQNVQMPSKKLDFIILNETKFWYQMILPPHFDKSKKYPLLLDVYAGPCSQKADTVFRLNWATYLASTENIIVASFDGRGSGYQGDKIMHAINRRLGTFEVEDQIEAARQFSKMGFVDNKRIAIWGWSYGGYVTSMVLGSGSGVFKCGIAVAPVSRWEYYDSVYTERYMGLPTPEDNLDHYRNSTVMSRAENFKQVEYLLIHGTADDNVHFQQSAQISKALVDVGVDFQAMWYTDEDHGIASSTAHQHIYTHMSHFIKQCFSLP

Compound	Dpp4 inhibiting activity among 20 kinds of amino acids (FIG. 2, substrate cleavage rate), in words [1]	inhibition of the bond of Leu8-MAP to p103, in words [2]	further results
CC(C)C[C@H](N)C(=O)O [Leucine, L-leucine]	has the Dpp4 inhibiting activity	inhibited	effect on autophagy induced by amino acid starvation, in words (rat hepatic cells): strongly inhibits autophagy; Inhibition of proteolysis (%) (rat hepatic cells; starvation induced proteolysis, 20 uM cycloheximide, valine release for 11 minutes): 27.9%; concentration-dependent Dpp4 inhibiting activity (FIG. 1), in words ([1]; FIG. 1): inhibits Dpp4
CSCC[C@H](N)C(=O)O [Met, L-methionine]	has the Dpp4 inhibiting activity	–	–
CC(C)C[C@H](NC(=O)[C@@H](N)CCCCN)C(=O)O [R1=L-Lys, R2=OH, Lys-Leu] (H-Lys-Leu-OH)	–	–	Inhibition rate (%) ([1]; test compound 2 mM, 100 uM G-P-pNA, 0.25 ng/ul rhDPP4, 37° C. for 30 minutes): 38.4%
CC[C@H](C)[C@H](N)C(=O)O [isoleucine]	–	not inhibited	–
CC(C)[C@H](N)C(=O)O [valine]	–	not inhibited	–
